Measured values from ChEMBL document CHEMBL1909046, “DrugMatrix in vitro pharmacology data”.

Experiments:
Neutrophil elastase = biological target: T1, Neutrophil elastase (Homo sapiens, UniProt P08246); type: tissue-based;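 further: inhibition of neutrophil elastase enzyme activity, measured with a p-nitroanilide-linked peptide substrate; in other assays of this panel Not Active means under 50% inhibition at 10 µM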
T1 sequence (P08246 whole entry): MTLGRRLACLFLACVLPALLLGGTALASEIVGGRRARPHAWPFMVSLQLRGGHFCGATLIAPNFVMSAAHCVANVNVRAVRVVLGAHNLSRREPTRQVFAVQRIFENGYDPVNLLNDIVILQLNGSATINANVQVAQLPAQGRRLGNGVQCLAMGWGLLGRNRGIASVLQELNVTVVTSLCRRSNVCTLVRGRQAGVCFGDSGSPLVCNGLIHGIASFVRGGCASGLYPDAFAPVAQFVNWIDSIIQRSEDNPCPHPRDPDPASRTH

[1] = biological target: Tyrosine-protein kinase Lck (Homo sapiens, UniProt P06239); assay: DRUGMATRIX: Protein Tyrosine Kinase, LCK enzyme inhibition (substrate: Poly(Glu:Tyr)); type: cell-based, Insect cells; details: insect cells; Not Active = under 50% inhibition at 10 µM
Sequence of Tyrosine-protein kinase Lck (P06239 whole entry): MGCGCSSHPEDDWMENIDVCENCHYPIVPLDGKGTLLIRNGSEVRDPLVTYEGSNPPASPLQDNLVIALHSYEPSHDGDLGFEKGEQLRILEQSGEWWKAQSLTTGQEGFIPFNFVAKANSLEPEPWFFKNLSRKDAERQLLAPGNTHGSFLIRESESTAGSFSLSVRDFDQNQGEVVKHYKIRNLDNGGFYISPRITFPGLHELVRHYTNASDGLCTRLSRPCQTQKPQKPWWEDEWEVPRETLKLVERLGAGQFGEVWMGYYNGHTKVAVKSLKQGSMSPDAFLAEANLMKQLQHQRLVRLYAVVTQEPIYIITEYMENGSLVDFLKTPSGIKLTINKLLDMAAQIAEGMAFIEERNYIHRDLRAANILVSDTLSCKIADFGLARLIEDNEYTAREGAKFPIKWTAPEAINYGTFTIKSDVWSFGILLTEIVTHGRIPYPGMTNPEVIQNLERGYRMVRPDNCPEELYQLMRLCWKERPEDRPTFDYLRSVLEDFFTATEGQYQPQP

[2] = biological target: T2, Alpha-2C adrenergic receptor (Homo sapiens, UniProt P18825); assay: DRUGMATRIX: Adrenergic Alpha-2C radioligand binding (ligand: [3H] MK-912); type: cell membranes, Sf9, Membrane; details: sf9
T2 sequence (P18825 whole entry): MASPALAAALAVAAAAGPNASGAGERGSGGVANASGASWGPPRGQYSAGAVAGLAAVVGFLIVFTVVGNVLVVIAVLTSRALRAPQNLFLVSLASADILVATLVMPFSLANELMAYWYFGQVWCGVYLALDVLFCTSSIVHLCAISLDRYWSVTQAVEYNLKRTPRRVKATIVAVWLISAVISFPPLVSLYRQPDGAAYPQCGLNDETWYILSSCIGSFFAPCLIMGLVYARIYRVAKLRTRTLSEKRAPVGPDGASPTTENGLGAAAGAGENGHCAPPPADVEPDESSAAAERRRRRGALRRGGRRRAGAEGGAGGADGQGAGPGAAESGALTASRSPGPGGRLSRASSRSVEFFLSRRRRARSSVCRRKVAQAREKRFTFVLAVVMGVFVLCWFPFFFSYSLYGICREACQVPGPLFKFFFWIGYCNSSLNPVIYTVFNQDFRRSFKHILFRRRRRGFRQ

[3] = DRUGMATRIX: Potassium Channel [KATP] radioligand binding (ligand: [3H] Glyburide); type: cell membranes, Membrane; details: hit-t15; Not Active = under 50% inhibition at 10 µM
[4] = biological target: T3, Amine oxidase [flavin-containing] A (Homo sapiens, UniProt P21397); assay: DRUGMATRIX: Monoamine Oxidase MAO-A enzyme inhibition (substrate: Kynuramine); parameters: species or system BTI-TN-5B1-4; details: bti-tn-5b1-4; Not Active = under 50% inhibition at 10 µM
T3 sequence (P21397 whole entry): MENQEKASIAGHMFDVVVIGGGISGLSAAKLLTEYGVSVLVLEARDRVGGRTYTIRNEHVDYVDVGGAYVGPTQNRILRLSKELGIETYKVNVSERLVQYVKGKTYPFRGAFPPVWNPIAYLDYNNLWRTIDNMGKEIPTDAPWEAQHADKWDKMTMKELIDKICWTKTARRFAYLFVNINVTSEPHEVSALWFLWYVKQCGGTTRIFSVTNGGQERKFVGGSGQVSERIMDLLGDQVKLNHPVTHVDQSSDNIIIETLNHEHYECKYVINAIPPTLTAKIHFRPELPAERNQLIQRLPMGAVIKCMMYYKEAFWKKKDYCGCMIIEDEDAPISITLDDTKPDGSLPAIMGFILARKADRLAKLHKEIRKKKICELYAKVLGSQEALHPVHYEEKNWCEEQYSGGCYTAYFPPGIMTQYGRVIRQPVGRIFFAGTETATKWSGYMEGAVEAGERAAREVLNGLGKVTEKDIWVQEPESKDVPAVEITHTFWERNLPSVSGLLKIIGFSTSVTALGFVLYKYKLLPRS

Thromboxane-A synthase = biological target: T4, Thromboxane-A synthase (Homo sapiens, UniProt P24557); assay: biochemical; type: tissue-based, Platelet; details: platelet;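 further: enzyme inhibition assay with PGH2 supplied as substrate; in other assays of this panel Not Active means under 50% inhibition at 10 µM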
T4 sequence (P24557 whole entry): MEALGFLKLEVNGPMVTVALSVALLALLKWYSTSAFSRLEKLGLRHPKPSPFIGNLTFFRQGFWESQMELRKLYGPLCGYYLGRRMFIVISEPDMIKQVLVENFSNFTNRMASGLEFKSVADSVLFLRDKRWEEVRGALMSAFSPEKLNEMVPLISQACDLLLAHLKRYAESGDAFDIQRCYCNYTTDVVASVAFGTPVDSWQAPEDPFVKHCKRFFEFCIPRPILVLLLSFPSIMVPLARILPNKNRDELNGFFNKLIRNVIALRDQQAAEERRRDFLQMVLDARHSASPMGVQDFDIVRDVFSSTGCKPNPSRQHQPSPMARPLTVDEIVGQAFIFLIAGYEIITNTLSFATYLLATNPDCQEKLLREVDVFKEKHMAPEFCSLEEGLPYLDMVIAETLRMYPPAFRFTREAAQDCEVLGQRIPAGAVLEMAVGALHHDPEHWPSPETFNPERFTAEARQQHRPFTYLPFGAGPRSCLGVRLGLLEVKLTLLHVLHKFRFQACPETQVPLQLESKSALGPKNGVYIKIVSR

[5] = biological target: Sodium-dependent noradrenaline transporter (Homo sapiens, UniProt P23975); assay: DRUGMATRIX: Norepinephrine Transporter radioligand binding (ligand: [125I] RTI-55); type: cell membranes, MDCK, Membrane; details: mdck; Not Active = under 50% inhibition at 10 µM
Sequence of Sodium-dependent noradrenaline transporter (P23975 whole entry): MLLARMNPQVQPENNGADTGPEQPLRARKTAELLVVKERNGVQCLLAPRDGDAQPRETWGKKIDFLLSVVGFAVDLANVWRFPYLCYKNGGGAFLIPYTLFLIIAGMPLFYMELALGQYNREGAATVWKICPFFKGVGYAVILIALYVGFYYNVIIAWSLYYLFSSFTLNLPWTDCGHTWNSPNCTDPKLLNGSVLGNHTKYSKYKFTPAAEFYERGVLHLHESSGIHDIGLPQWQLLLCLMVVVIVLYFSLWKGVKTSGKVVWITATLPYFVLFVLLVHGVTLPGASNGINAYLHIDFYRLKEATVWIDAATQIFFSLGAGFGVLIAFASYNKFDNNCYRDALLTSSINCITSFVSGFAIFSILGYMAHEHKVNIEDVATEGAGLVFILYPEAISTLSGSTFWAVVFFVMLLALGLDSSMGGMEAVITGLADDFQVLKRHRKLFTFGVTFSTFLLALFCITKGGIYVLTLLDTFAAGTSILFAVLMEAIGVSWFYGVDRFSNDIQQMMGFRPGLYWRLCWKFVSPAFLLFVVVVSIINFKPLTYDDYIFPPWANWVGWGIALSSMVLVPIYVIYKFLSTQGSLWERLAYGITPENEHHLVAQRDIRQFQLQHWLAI

[6] = DRUGMATRIX: GABAA, Muscimol, Central radioligand binding (ligand: [3H] Muscimol); type: cell membranes, Rattus norvegicus, Wistar, Brain, Membrane; details: Not Active = under 50% inhibition at 10 µM
[7] = biological target: T5, C-X-C chemokine receptor type 1 (Homo sapiens, UniProt P25024); further: in other assays of this panel Not Active means under 50% inhibition at 10 µM
T5 sequence (P25024 whole entry): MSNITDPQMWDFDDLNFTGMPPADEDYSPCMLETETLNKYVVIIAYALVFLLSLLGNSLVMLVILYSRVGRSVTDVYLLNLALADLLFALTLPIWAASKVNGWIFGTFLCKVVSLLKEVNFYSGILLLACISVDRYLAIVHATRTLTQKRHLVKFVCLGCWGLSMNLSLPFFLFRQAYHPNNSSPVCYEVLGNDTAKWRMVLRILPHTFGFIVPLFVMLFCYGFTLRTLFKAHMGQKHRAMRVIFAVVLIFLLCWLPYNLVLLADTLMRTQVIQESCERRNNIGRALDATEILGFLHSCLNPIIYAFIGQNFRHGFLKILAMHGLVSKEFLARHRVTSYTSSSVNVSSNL

O=C1OC2(c3ccc(O)cc3Oc3cc(O)ccc32)c2ccccc21 [FLUORESCEIN]
Not Active: IC50 (Neutrophil elastase) | IC50 [1] | IC50 [2] | IC50 [3] | Ki [3] | IC50 [4] | IC50 (Thromboxane-A synthase) | IC50 [5] | IC50 [6] | Ki [6] | IC50 [7]

COC1=CC(=O)C[C@@H](C)[C@]12Oc1c(Cl)c(OC)cc(OC)c1C2=O [GRISEOFULVIN]
Not Active: IC50 (Neutrophil elastase) | IC50 [1] | IC50 [2] | IC50 [3] | Ki [3] | IC50 [4] | IC50 (Thromboxane-A synthase) | IC50 [5] | IC50 [6] | Ki [6] | IC50 [7]

CARBOPLATIN
Not Active: IC50 (Neutrophil elastase) | Ki (Neutrophil elastase) | IC50 [1] | Ki [1] | IC50 [2] | Ki [2] | IC50 [3] | Ki [3] | IC50 [4] | Ki [4] | IC50 (Thromboxane-A synthase) | Ki (Thromboxane-A synthase) | IC50 [5] | Ki [5] | IC50 [6] | Ki [6] | IC50 [7] | Ki [7]
